Assay results published in paper PMC6941823, “A dispensable paralog of succinate dehydrogenase subunit C mediates standing resistance towards a subclass of SDHI fungicides in Zymoseptoria tritici” (PLoS Pathogens, 2019).
Like-named read-outs stand apart in the source and are kept apart here.

Experiments:
[1] = target: altC-SQR (altC) of D024 SDHC1 KO mitochondria (Zymoseptoria tritici, UniProt A0A1X7RQW2+F9X9V6+O42772); assay: Succinate-quinone (SQR) SDHI sensitivity assay on purified mitochondria, 06STD024 SDHC1 KO; type: biochemical; settings: mitochondria of 06STD024 ZtSDHC1 deletion mutant (pure altC-SQR); mean of three ± SD
Experimental: (§1) Succinate-ubiquinone oxidoreductase (SQR) inhibition assays were performed on mitochondrial extracts from a panel of strains that were (i) either carrying a unique C-subunit encoding gene (ZtSDHC1, ZtSDHC1_A84I or Zt-SDHC3), or (ii) carrying two C-subunit encoding genes ZtSDHC1 and ZtSDHC3 (Table 1).
(§2) Biomass production, mitochondrial extraction and purification were performed as described in [14]. Succinate: ubiquinone/DCPIP sensitivity tests were performed as described in [14] with minor modification.

[2] = target: WT-SQR (SDHC), IPO323 mitochondria (Zymoseptoria tritici, UniProt F9X9V6+F9XH52+O42772); assay: Succinate-quinone (SQR) SDHI sensitivity assay on purified mitochondria, IPO323; type: biochemical
Experimental: as §1
(§3) Biomass production, mitochondrial extraction and purification were performed as described in [14]. Succinate: ubiquinone/DCPIP sensitivity tests were performed as described in [14] with minor modification. The different mitochondrial suspensions were adjusted to similar initial velocity (1 OD595nm hour^-1) and inhibitor concentrations ranged between 0.047nM and 50μM with uniform 4x dilution steps (11 concentrations + DMSO control). Calculated absorbance slopes (OD/min) were used for IC50 calculations using GraphPad Prism 6.07 software non-linear curve fitting against log inhibitor concentrations.

[3] = tested on: Zymoseptoria tritici isolates; assay: Growth tests on solid agar at discriminatory fungicide concentrations; type: cell-based; settings: for Growth phenotype on SDHI-amended plate: AE agar, isofetamid 5 mg.L^-1, 10 DPI (procedure of Fig 6)
Text: Fig 6 Resistance to SHA-SDHIs in Z. tritici EU populations. […] Sensitivity data are sorted by genotype according to the presence of the ZtSDHC3 gene. ** p value of 0.0029 in Welch’s corrected unpaired t-test. (B) Solid agar growth of a collection of 93 Z. tritici isolates sampled in 2009 (same set as above). Individual strains from this collection are boxed and numbered 1 to 93. Boxes A and B correspond to reference resistant strains 06STD024 and 07STGB009 respectively. Box C corresponds to IPO323 reference sensitive isolate. The yellow framed boxes correspond to strains carrying the ZtSDHC3 gene. Yellow arrow designates strain 09STIR20.1 (number 78) carrying a non-functional alt-SDHC (frameshift, S6 Table).
A large scale spotting assay of 96 isolates (Fig 6) was performed using the V&P 96 floating pin tool VP408FP6 (V&P Scientific), equipped with flat tip FP6 pins of 1.58 mm diameter (resulting in approx. 0.4 μl transfer volume). Source cultures for cell spotting were grown in 100 μl YPD liquid medium in a 96 well flat bottom plate (Corning, 3370) at 18°C for 11 days (average cell density of 3.5·10^6/ml), then diluted 1:2x in fresh YPD medium and incubated for another 1.5 h before transfer with the pin tool (approx. 700 cells per spot) onto AE agar with or without fungicide. Plates were incubated at 20°C in the dark for up to 18 days. Smaller scale spotting assays (Figs 4 and 8) were performed using 5 days V8-agar plates inoculums adjusted to 2.10^6 spores.mL^-1 in water and diluted in steps of 3. 2μL of spore suspension was spotted on the plates, and the plates were incubated shielded from light at 21°C for 6 days.

[4] = tested on: Zymoseptoria tritici field and genetically modified strains; assay: Liquid culture assay for fungicide sensitivity determination; type: cell-based; settings: Zymoseptoria tritici, liquid culture sensitivity
Experimental: Sensitivity towards commercial fungicides was determined for a set of 99 SHA-SDHI-naïve Z. tritici field isolates sampled in Europe between 2006 and 2009. The EC50 of these isolates was determined in liquid growth assays and the data obtained compared for each possible pair of SDHI fungicides (cross-resistance (XR) plots, Fig 1). […] Comparative succinate-quinone reductase (SQR) enzyme inhibition tests were performed with mitochondria extracted from a panel of SHA-SDHIs tolerant and sensitive isolates.
In order to characterize in more depth the mechanisms driving sensitivity differences across the isolates, a subset of eight isolates carrying the ZtSDHC3 gene was analyzed for their sensitivity to SDHIs, alt-SDHC expression and splicing patterns. Liquid culture growth sensitivity tests were performed to determine EC50s for this set of isolates towards a wide range of commercial and research SDHIs (S5 Table).
Pre-culture of the inoculum and fungicide sensitivity tests were performed following previously described procedures. Different ranges of inhibitor concentrations were used for population monitoring and for the detailed phenotyping of a selected set of individual field isolates and genetically modified strains. For fungicide sensitivity monitoring of European field populations, final inhibitors concentrations were between 100 mg.L^-1 and 0.0001 mg.L^-1 with uniform 10x dilution steps (7 inhibitor concentrations + DMSO control). For refined sensitivity analysis of a smaller panel of isolates final inhibitor concentrations ranged between 0.5 mM and 0.47 nM with uniform 4x dilution factor steps (11 inhibitor concentrations+ DMSO control).

[5] = target: SQR (SDHC) of D024 SDHC3 KO mitochondria (Zymoseptoria tritici, UniProt F9X9V6+F9XH52+O42772); assay: Succinate-quinone (SQR) SDHI sensitivity assay on purified mitochondria, 06STD024 SDHC3 KO; type: biochemical
Experimental: as §1, §3

[6] = tested on: SQR (SDHC / altC) of IPO323 pTet::SDHC3 transformant, induced; assay: Succinate-quinone (SQR) SDHI sensitivity assay on purified mitochondria, IPO323 pTet::SDHC3 induced; type: biochemical, Zymoseptoria tritici; settings: IPO323 pTet::SDHC3 transformant grown in the absence of doxycycline; mean of three ± SD
Experimental: as §1, §2

[7] = target: SQR (SDHC / altC) of IPO323 pTet::SDHC3 transformant, repressed (Zymoseptoria tritici, UniProt A0A1X7RQW2+F9X9V6+F9XH52+O42772); assay: Succinate-quinone (SQR) SDHI sensitivity assay on purified mitochondria, IPO323 pTet::SDHC3 repressed; type: biochemical; settings: IPO323 pTet::SDHC3 transformant grown in presence of 30 mg.L^-1 doxycycline; mean of three ± SD
Experimental: as §1, §2

[8] = target: SQR of 06STD024 (SDHC / altC) mitochondria (Zymoseptoria tritici, UniProt A0A1X7RQW2+F9X9V6+F9XH52+O42772); assay: Succinate-quinone (SQR) SDHI sensitivity assay on purified mitochondria, 06STD024; type: biochemical; settings: mitochondria of field isolate 06STD024; mean of three ± SD
Experimental: as §1, §2

Sequence of SQR (SDHC) of D024 SDHC3 KO mitochondria (F9XH52 44-187): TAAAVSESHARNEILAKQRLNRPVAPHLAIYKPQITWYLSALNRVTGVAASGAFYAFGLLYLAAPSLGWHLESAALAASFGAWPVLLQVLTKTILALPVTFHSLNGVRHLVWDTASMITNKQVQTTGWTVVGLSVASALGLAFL
Sequence of SQR (SDHC) of D024 SDHC3 KO mitochondria (O42772 19-297): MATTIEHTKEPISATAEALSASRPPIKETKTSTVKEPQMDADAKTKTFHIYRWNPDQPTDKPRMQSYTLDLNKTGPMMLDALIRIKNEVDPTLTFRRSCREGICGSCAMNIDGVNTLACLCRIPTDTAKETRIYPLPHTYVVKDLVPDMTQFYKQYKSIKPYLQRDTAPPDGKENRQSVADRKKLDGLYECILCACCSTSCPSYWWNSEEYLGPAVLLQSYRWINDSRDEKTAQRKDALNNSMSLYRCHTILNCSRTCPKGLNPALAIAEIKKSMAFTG
Sequence of SQR (SDHC) of D024 SDHC3 KO mitochondria (F9X9V6 1-193): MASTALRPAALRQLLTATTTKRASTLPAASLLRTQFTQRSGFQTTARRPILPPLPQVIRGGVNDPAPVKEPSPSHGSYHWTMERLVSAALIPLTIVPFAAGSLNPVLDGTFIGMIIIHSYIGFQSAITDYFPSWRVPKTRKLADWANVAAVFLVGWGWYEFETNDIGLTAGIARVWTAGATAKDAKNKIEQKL
Sequence of SQR (SDHC) of D024 SDHC3 KO mitochondria (F9WWR1 29-643 partner): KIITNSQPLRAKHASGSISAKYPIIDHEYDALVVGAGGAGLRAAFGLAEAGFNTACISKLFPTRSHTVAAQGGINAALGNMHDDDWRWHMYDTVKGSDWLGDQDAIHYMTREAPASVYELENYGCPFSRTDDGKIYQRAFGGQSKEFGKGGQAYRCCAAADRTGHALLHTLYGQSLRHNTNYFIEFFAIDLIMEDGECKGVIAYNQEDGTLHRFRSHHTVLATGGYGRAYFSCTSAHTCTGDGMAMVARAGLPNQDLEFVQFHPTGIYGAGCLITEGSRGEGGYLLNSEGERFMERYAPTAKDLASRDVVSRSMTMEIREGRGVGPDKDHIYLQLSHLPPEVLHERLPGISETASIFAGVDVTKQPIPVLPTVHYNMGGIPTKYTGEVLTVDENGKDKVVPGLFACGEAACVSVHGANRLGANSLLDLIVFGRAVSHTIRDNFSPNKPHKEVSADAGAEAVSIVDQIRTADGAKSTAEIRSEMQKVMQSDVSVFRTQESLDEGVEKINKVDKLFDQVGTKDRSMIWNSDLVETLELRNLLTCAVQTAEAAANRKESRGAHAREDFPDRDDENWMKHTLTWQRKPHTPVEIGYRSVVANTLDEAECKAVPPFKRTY
Sequence of WT-SQR (SDHC), IPO323 mitochondria (F9WWR1 entry or part of it): as the sequence (F9WWR1 29-643 partner) above
Sequence of WT-SQR (SDHC), IPO323 mitochondria (F9X9V6 entry or part of it): as the sequence (F9X9V6 1-193) above
Sequence of WT-SQR (SDHC), IPO323 mitochondria (O42772 19-297): as the sequence (O42772 19-297) above
Sequence of WT-SQR (SDHC), IPO323 mitochondria (F9XH52 entry or part of it): as the sequence (F9XH52 44-187) above
Sequence of altC-SQR (altC) of D024 SDHC1 KO mitochondria (A0A1X7RQW2 36-181): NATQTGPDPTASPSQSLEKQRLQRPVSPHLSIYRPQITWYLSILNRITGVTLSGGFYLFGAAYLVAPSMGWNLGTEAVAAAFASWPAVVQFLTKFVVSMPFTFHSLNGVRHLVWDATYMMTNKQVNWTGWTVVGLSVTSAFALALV
Sequence of altC-SQR (altC) of D024 SDHC1 KO mitochondria (O42772 20-297): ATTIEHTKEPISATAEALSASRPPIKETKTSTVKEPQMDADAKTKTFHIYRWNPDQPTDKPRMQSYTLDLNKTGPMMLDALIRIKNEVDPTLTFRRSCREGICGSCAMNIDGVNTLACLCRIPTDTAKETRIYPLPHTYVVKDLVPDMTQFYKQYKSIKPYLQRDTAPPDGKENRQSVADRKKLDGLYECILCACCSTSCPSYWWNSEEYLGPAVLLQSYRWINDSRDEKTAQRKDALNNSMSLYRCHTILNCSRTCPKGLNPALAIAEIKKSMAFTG
Sequence of altC-SQR (altC) of D024 SDHC1 KO mitochondria (F9X9V6 1-193): as the sequence (F9X9V6 1-193) above
Sequence of altC-SQR (altC) of D024 SDHC1 KO mitochondria (F9WWR1 41-643 partner): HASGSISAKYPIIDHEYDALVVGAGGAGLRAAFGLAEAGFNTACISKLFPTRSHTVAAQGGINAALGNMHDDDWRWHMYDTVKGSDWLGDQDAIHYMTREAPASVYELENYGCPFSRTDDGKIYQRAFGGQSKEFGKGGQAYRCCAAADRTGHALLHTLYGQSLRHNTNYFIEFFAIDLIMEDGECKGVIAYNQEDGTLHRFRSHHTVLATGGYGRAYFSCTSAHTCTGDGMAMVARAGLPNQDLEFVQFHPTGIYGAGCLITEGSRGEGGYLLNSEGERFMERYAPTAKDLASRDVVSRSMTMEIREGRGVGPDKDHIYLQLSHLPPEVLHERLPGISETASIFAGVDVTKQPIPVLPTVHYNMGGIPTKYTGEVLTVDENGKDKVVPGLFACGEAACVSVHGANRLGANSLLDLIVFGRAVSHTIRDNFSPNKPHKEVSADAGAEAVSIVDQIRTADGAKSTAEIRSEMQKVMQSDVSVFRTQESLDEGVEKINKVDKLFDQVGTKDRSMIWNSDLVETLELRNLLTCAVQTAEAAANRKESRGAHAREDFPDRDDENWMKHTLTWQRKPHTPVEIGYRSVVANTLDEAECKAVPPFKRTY

`Cc1cc(OC(C)C)ccc1C(=O)C(C)(C)NC(=O)c1sccc1C` [Isofetamid] was tested, and the IC50 [1] was over 50000 nM, the IC50 [2] was 0.9 ± 0.1 nM and the “Growth on isofetamid-supplemented agar plate” value ([3]; isolate 09STIR20.1 (ZtSDHC3 frameshift), 10 DPI, 5 mg.L^-1) was “did not grow”. The “Growth phenotype on SDHI-amended plate” value ([3]; strain 06STD024) was “Very strong”, the “Growth phenotype on SDHI-amended plate” value ([3]; strain 07STGB009) was “Very strong” and the “Growth phenotype on SDHI-amended plate” value ([3]; strain 09STD041) was “Strong”. The “Growth phenotype on SDHI-amended plate” value ([3]; strain 09STD053) was “Strong”, the “Growth phenotype on SDHI-amended plate” value ([3]; strain 09STF011) was “Strong” and the “Growth phenotype on SDHI-amended plate” value ([3]; strain 09STF037) was “Weak”. For the same molecule, the “Growth phenotype on SDHI-amended plate” value ([3]; strain 09STF112) was “Strong”, the “Growth phenotype on SDHI-amended plate” value ([3]; strain 09STIR20.3) was “Weak” and the “Growth phenotype on SDHI-amended plate” value ([3]; strain IPO323) was “No”. The “Growth phenotype on SDHI-amended plate” value ([3]; strain IPO94269) was “No”.

`Cn1cc(C(=O)NCCc2ccc(Cl)cc2Cl)c(C(F)F)n1` [Compound 1] was tested, and the EC50 ([4]; read-out: EC50 (nM) Mean, strain 06STD024) was 14700 nM, the EC50 ([4]; read-out: EC50 (nM) Mean, strain 07STGB009) was 15700 nM and the EC50 ([4]; read-out: EC50 (nM) Mean, strain 09STD041) was 6050 nM. The EC50 ([4]; read-out: EC50 (nM) Mean, strain 09STD053) was 6070 nM, the EC50 ([4]; read-out: EC50 (nM) Mean, strain 09STF011) was 7870 nM and the EC50 ([4]; read-out: EC50 (nM) Mean, strain 09STF037) was 4910 nM. For the same molecule, the EC50 ([4]; read-out: EC50 (nM) Mean, strain 09STF112) was 8980 nM, the EC50 ([4]; read-out: EC50 (nM) Mean, strain 09STIR20.3) was 4360 nM and the EC50 ([4]; read-out: EC50 (nM) Mean, strain Flu21 (SDHC1_A84I)) was 49100 nM. It also gave an EC50 ([4]; read-out: EC50 (nM) Mean, strain IPO323) of 3580 nM, an EC50 ([4]; read-out: EC50 (nM) Mean, strain IPO94269) of 2710 nM and an EC50 ([4]; read-out: EC50 (nM) Mean, strain KO_SDHC1_T1) of 125000 nM. It also gave an EC50 ([4]; read-out: EC50 (nM) Mean, strain KO_SDHC1_T3) of 78800 nM, an EC50 ([4]; read-out: EC50 (nM) Mean, strain KO_SDHC3_T4) of 9090 nM and an EC50 ([4]; read-out: EC50 (nM) Mean, strain KO_SDHC3_T13) of 7200 nM. The EC50 ([4]; read-out: EC50 (nM) Mean, strain pTet::SDHC3_I78A_T1) was 4610 nM, the EC50 ([4]; read-out: EC50 (nM) Mean, strain pTet::SDHC3_I78A_T5) was 7960 nM and the EC50 ([4]; read-out: EC50 (nM) Mean, strain pTet::SDHC3_I78A_T15) was 3300 nM. The EC50 ([4]; read-out: EC50 (nM) Mean, strain pTet::SDHC3_I78A_T35) was 4430 nM, the EC50 ([4]; read-out: EC50 (nM) Mean, strain pTet::SDHC3_T1) was 33300 nM and the EC50 ([4]; read-out: EC50 (nM) Mean, strain pTet::SDHC3_T2) was 35300 nM. The EC50 ([4]; read-out: EC50 (nM) Mean, strain pTet::SDHC3_T3) was 22900 nM, the EC50 ([4]; read-out: EC50 (nM) Mean, strain pTet::SDHC3_T7) was 35300 nM and the “RF (resistance factor), D024 SDHC3 KO (SDHC)” value ([5]; IC50 ratio compared to IPO323 values) was 0.7. The IC50 ([5]; mitochondria of 06STD024 ZtSDHC3 deletion mutant, mean of three ± SD) was 79.4 ± 7.6 nM, the IC50 [1] was 940 ± 238 nM and the IC50 [2] was 113 ± 10.9 nM. It also gave an IC50 [6] of 484 ± 42.8 nM, an IC50 [7] of 152 ± 17.5 nM and an IC50 [8] of 875 ± 159 nM.
